Laboratory results taken from ChEMBL document CHEMBL1201862, “PubChem BioAssay data set” (2004).
Active and inactive are the calls of the source.

How the values were obtained:
[1] = A375 melanoma cell cytotoxicity, dose response, counter-screen for MITF inhibitor project, CellTiter-Glo luminescence, dry powder, set 6 (AID 624488); format: functional, cell-based; conditions: A-375
[2] = MITF Orthogonal Assay: SK-MEL-5 CTG Assay Measured in Cell-Based System Using Plate Reader - 2084-02_Inhibitor_Dose_DryPowder_Activity_Set5.; format: functional
[3] = A375 melanoma cell viability loss, dose response, counter-screen for MITF inhibitor project, CellTiter-Glo luminescence, dry powder, set 4 (AID 624364); format: functional, cell-based; conditions: A-375;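 also: A375 melanoma cells are MITF independent so this is a counter screen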
[4] = TRPM1 promoter luciferase reporter signal decrease, dose response, MITF inhibitor project, cell-based, SK-MEL-5, dry powder, set 9 (AID 651588); format: functional
[5] = MALME3 melanoma cell viability reduction, dose response, orthogonal assay for MITF inhibitor project, CellTiter-Glo luminescence, dry powder, set 5 (AID 651584); format: functional, cell-based; conditions: MALME-3
[6] = MITF Measured in Cell-Based System Using Plate Reader - 2084-01_Inhibitor_Dose_DryPowder_Activity_Set7.; format: functional
[7] = MITF Orthogonal Assay: MALME3 CTG Assay Measured in Cell-Based System Using Plate Reader - 2084-04_Inhibitor_Dose_DryPowder_Activity_Set6.; format: functional; conditions: MALME-3
[8] = A375 melanoma cell viability loss, dose response, counter-screen for MITF modulator project, CellTiter-Glo luminescence, dry powder, set 9 (AID 651591); format: functional, cell-based; conditions: A-375
[9] = MITF Measured in Cell-Based System Using Plate Reader - 2084-01_Inhibitor_Dose_DryPowder_Activity_Set6.; format: functional
[10] = A375 melanoma cell cytotoxicity, dose response, counter-screen for MITF inhibitor project, CellTiter-Glo luminescence, dry powder, set 2 (AID 624489); format: functional, cell-based; conditions: A-375;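 also: actives are compounds lowering A375 viability meaning general cytotoxicity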
[11] = A375 melanoma cell cytotoxicity, dose response, counter-screen for MITF inhibitor project, CellTiter-Glo luminescence, dry powder, set 7 (AID 624490); format: functional, cell-based; conditions: A-375
[12] = SK-MEL-5 parental line viability, dose response, MITF inhibitor project, cell-based, CellTiter-Glo, dry powder, set 6 (AID 624429); format: functional
[13] = target: T1, Apoptotic protease-activating factor 1 (Homo sapiens, UniProt O14727); format: functional
T1 sequence (O14727 whole entry): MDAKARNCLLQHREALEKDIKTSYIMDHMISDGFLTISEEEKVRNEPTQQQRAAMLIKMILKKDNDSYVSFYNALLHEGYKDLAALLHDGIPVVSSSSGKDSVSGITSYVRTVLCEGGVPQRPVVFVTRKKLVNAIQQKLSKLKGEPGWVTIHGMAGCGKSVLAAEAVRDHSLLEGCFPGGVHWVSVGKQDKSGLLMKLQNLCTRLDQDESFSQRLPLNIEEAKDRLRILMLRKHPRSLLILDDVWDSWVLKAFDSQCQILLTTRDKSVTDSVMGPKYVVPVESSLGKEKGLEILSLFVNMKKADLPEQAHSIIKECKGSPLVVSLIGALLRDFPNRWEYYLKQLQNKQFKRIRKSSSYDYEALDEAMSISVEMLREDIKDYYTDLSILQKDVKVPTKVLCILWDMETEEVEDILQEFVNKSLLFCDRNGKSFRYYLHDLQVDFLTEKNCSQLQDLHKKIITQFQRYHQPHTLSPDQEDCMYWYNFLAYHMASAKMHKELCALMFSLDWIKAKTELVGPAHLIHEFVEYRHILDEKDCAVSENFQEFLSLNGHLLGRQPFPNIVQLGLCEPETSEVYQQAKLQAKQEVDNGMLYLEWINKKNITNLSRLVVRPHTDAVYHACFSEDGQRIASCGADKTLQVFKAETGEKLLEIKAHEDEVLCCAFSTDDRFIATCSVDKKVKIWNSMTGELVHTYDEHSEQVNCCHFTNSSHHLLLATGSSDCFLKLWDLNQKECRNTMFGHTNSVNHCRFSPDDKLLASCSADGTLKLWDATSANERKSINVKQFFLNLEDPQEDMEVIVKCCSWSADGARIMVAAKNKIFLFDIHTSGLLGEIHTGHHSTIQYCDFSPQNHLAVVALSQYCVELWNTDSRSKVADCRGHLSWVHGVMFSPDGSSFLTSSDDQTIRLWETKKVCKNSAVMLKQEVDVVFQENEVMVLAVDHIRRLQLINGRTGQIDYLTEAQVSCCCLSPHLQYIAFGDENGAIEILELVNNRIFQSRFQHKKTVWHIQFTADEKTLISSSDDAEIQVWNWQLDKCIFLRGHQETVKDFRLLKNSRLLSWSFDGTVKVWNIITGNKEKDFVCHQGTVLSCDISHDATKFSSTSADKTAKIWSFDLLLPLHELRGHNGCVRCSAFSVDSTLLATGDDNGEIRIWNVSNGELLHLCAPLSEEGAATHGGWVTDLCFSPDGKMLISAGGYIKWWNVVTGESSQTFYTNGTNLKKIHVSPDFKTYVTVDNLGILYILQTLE

[14] = SK-MEL-5 parental cell viability reduction, dose response, orthogonal assay for MITF inhibitor project, CellTiter-Glo luminescence, dry powder, set 8 (AID 651586); format: functional, cell-based
[15] = target: T2, Microphthalmia-associated transcription factor (Homo sapiens, UniProt O75030); experiment: TRPM1 promoter luciferase signal decrease, dose response, MITF inhibitor project, cell-based, SK-MEL-5, cherry-picked, set 3 (AID 493073); format: functional
T2 sequence (O75030 whole entry): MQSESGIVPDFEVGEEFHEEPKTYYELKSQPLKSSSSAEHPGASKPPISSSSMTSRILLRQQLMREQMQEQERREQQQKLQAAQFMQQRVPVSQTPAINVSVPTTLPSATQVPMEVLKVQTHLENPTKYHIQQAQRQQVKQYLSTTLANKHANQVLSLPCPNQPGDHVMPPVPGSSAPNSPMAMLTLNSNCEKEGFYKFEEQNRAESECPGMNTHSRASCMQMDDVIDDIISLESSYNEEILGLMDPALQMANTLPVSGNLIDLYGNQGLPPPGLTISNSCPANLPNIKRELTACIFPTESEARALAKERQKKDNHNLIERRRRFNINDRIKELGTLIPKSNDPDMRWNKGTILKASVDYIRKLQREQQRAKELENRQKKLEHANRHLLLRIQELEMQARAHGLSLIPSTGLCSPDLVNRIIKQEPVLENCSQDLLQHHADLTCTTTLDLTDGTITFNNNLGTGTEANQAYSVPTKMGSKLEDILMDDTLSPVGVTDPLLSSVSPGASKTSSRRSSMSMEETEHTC

[16] = Jurkat T cell cytotoxicity, dose response, cytotoxicity control for P. falciparum gametocyte viability project, luminescence (AID 1117277); format: functional, cell-based;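 also: potency reflects loss of cellular ATP meaning fewer viable cells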
[17] = target: T3, Calpain-2 catalytic subunit (Sus scrofa, UniProt P43367); experiment: pig calpain II inhibitor potency, dose response, biochemical, fluorogenic peptide substrate (AID 1420); format: functional
T3 sequence (P43367 whole entry): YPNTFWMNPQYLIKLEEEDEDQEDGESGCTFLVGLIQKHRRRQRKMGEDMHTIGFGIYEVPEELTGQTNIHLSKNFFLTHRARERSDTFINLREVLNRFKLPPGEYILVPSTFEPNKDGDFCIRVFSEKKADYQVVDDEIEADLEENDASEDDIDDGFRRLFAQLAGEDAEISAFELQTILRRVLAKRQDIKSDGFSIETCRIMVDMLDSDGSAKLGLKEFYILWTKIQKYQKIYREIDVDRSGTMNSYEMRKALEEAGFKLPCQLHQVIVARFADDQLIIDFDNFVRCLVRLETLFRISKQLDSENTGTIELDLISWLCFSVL

[18] = P. falciparum late gametocyte killing, dose response, luminescence (AID 1117278); format: functional, cell-based;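 also: gametocytes exposed to compound for 24 hours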
[19] = target: Leucyl-cystinyl aminopeptidase (Mus musculus, UniProt Q8C129); experiment: IRAP enzyme inhibitors, dose response, selectivity assay for ERAP1 modulator project, biochemical, dry powder samples, set 3 (AID 1117288); format: functional
Sequence of Leucyl-cystinyl aminopeptidase (Q8C129 whole entry): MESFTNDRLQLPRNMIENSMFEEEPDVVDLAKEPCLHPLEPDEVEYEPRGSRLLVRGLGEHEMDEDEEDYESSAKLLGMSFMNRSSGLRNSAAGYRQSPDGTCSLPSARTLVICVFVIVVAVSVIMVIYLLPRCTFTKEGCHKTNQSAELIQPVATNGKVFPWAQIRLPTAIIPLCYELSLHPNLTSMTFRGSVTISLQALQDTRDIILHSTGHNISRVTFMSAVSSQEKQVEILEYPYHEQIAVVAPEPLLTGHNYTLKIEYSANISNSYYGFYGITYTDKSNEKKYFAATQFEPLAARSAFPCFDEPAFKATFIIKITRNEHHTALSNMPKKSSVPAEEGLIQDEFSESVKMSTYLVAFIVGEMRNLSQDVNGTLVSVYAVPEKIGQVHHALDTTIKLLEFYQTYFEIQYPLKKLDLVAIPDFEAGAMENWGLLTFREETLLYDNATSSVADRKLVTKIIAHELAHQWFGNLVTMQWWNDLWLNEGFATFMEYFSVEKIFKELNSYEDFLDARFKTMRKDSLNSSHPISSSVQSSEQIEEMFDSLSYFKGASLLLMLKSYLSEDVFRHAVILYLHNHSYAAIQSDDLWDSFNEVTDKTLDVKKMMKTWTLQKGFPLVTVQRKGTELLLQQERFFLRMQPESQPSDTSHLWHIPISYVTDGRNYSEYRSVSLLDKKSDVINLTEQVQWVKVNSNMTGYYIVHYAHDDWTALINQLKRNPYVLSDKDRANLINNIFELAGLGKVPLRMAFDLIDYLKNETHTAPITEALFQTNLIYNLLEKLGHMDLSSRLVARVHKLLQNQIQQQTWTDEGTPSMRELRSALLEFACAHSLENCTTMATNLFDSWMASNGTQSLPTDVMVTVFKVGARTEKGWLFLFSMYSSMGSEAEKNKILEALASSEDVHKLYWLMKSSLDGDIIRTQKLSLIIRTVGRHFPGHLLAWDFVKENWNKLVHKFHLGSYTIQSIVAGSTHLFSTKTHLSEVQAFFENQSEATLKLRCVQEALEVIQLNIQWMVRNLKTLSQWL

[20] = target: Endoplasmic reticulum aminopeptidase 2 (Homo sapiens, UniProt Q6P179); experiment: ERAP2 aminopeptidase inhibitors, dose response, selectivity assay for selective ERAP1 modulator project, biochemical, plate reader, dry powder, set 2 (AID 1117289); format: functional
Sequence of Endoplasmic reticulum aminopeptidase 2 (Q6P179 whole entry): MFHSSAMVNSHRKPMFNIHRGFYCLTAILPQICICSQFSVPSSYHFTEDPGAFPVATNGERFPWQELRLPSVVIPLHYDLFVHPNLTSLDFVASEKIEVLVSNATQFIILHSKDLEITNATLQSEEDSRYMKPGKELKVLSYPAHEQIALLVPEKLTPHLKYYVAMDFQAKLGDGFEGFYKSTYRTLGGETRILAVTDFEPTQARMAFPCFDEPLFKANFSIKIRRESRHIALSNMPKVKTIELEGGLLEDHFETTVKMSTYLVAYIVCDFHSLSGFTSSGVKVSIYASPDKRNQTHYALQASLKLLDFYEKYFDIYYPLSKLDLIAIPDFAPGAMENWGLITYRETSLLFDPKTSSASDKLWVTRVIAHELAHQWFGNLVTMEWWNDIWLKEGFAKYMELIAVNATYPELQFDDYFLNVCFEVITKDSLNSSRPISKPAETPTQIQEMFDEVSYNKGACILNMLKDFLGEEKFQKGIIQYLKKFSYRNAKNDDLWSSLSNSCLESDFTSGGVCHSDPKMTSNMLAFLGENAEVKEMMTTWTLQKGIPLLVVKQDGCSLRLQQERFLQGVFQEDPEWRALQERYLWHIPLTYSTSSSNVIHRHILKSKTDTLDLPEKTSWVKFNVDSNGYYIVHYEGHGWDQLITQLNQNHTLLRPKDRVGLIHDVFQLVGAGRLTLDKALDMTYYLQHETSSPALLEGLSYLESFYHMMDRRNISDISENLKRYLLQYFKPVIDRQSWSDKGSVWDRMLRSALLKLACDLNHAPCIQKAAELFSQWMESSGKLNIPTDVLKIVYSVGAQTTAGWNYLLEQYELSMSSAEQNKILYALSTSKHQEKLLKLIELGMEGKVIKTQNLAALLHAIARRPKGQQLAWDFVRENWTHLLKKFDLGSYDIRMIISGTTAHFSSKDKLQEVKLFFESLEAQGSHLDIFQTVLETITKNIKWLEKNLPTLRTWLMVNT

[21] = A549 cell cytotoxicity, dose response, cytotoxicity control, plate reader, dry powder, set 7 (AID 743318); format: functional, cell-based

For `CCN1CCN(C2=C(NS(=O)(=O)c3ccc(Br)cc3)C(=O)c3ccccc3C2=O)CC1`, the AC50 [1] was 55.1 µM (active), the AC50 [2] was 34.3 µM (active) and the AC50 [3] was > 70 µM (inactive). The AC50 [4] was 17.3 µM (active), the AC50 [5] was 20.9 µM (active) and the AC50 [6] was 4.5 µM (active). The AC50 [7] was 20.9 µM (active), the AC50 [8] was > 70 µM (inactive) and the AC50 [9] was 8.92 µM (active). For the same compound, the AC50 [10] was > 70 µM (inactive), the AC50 [11] was > 70 µM (inactive) and the AC50 [12] was 46.2 µM (active). The IC50 [13] was 24.3 µM (active), the AC50 [14] was 48.4 µM (active) and the AC50 [15] was 5.7 µM (active).

In the case of `CCc1ccc2nc(NC(=O)Cn3cnc4ccccc4c3=O)sc2c1`, the IC50 [16] is reported as > 83.3 µM (inactive), the IC50 [17] is reported as 11.7 µM (not active) and the IC50 [18] is reported as > 109 µM (inactive).

In the case of `COc1ccc(C(=O)O)cc1S(=O)(=O)Nc1ccc(C(F)(F)F)cc1N1CCCCC1`, the AC50 [19] is reported as 77 µM (active) and the AC50 [20] is reported as 12.5 µM (active).

For `Cc1ccc(C(C)C)c(OCCn2c(=S)[nH]c3cc(F)ccc32)c1`, the AC50 [21] was 26.9 µM (active).
